Experimental findings from PubChem BioAssay (NCI) are described below.

Among the test systems are 786-0 renal; COLO 205 colon; DU-145 prostate; HCT-116 colon; HOP-62 NSCLC; K-562 leukemia; M14 melanoma; MCF7 breast; MDA-MB-231 breast; MDA-MB-435; NCI-H460 lung; OVCAR-5 ovarian; PC-3 prostate; RPMI-8226 leukemia; SN12C renal; SNB-19 CNS; U251 CNS; HCC-2998 colon; RXF 393 renal.
Assay in all cases: inhibition of tumour cell growth, NCI panel, 48 h

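In this assay, cells in 96-well plates receive the compound at five concentrations for 48 hours. Endpoints are linearly interpolated between the surrounding concentrations. TGI marks complete inhibition of growth.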 Some results are limits rather than exact numbers.

Take `C=C1CC[C@@H]2[C@](C)(COC(=O)CCC(=O)OC)CCC[C@@]2(C)[C@@H]1CCC1=CC(=O)OC1`: the TGI with 786-0 renal, in the experiment with COLO 205 colon, with DU-145 prostate, with HCT-116 colon, in the experiment with HOP-62 NSCLC and with K-562 leukemia was over 100 µM each time. Moreover, the TGI in the experiment with M14 melanoma, in the experiment on MCF7 breast, with MDA-MB-231 breast, in the experiment with MDA-MB-435, in the experiment with NCI-H460 lung and with OVCAR-5 ovarian was over 100 µM each time. For the same compound, the TGI was over 100 µM in the experiment with PC-3 prostate; 34.2 µM with RPMI-8226 leukemia; over 100 µM in the experiment with SN12C renal; over 100 µM in the experiment on SNB-19 CNS; over 100 µM with U251 CNS.

With `COC(=O)C(=O)C(C(=O)C(=O)Nc1cccc(OC)c1)c1nc2ccc(Cl)cc2[nH]c1=O` (configuration not stated), the TGI in the experiment on 786-0 renal, in the experiment with COLO 205 colon, with DU-145 prostate, in the experiment on HCC-2998 colon, with HCT-116 colon and in the experiment with K-562 leukemia was over 100 µM throughout. The TGI in the experiment with M14 melanoma, in the experiment on MCF7 breast, with MDA-MB-231 breast, in the experiment on MDA-MB-435, in the experiment with NCI-H460 lung and with OVCAR-5 ovarian was over 100 µM throughout. In addition, the TGI with PC-3 prostate, with RPMI-8226 leukemia, in the experiment with SN12C renal, in the experiment with SNB-19 CNS and with U251 CNS was over 100 µM throughout.

On to `Clc1ccc(C(OCn2ccnc2)c2nc3ccccc3[nH]2)c(Cl)c1` (configuration not stated), for which the TGI in the experiment on 786-0 renal, in the experiment on COLO 205 colon, in the experiment on DU-145 prostate, in the experiment with HCC-2998 colon, with HCT-116 colon and with HOP-62 NSCLC was over 100 µM in each case. The TGI in the experiment with K-562 leukemia, in the experiment on M14 melanoma, with MCF7 breast, in the experiment on MDA-MB-231 breast, in the experiment on MDA-MB-435 and in the experiment with NCI-H460 lung was over 100 µM in each case. Moreover, the TGI in the experiment on OVCAR-5 ovarian is over 100 µM; in the experiment on PC-3 prostate, over 100 µM; in the experiment with RPMI-8226 leukemia, 92.4 µM; in the experiment on SN12C renal, over 100 µM; in the experiment with SNB-19 CNS, over 100 µM; in the experiment on U251 CNS, over 100 µM.

As for `COC(=O)c1c(C)cccc1C1CN=NC12Cc1cc(C)c(C)cc1C2=O` (configuration not stated), the TGI with 786-0 renal, in the experiment with COLO 205 colon, in the experiment with DU-145 prostate, in the experiment on HCC-2998 colon, with HCT-116 colon and in the experiment with HOP-62 NSCLC was over 100 µM in each case. The TGI in the experiment with K-562 leukemia, in the experiment with M14 melanoma, in the experiment on MCF7 breast, with MDA-MB-231 breast, in the experiment on MDA-MB-435 and with NCI-H460 lung was over 100 µM each time. For the same compound, the TGI with OVCAR-5 ovarian, with PC-3 prostate, in the experiment with RXF 393 renal, in the experiment on SN12C renal, in the experiment with SNB-19 CNS and in the experiment with U251 CNS was over 100 µM each time.

For `Cc1nn(C(=O)Cc2ccccc2)c2c1C(c1ccc(/C=C/c3ccccc3)cc1)SC(N)=N2` (configuration not stated), the TGI with 786-0 renal, in the experiment on COLO 205 colon, in the experiment with DU-145 prostate, in the experiment on HCC-2998 colon, in the experiment on HCT-116 colon and in the experiment with HOP-62 NSCLC was over 100 µM in each case. Moreover, the TGI with K-562 leukemia, in the experiment with M14 melanoma, with MCF7 breast, in the experiment on MDA-MB-231 breast, in the experiment with MDA-MB-435 and in the experiment on NCI-H460 lung was over 100 µM throughout. In addition, the TGI with PC-3 prostate, with RPMI-8226 leukemia, in the experiment on SN12C renal and with SNB-19 CNS was over 100 µM in each case.

In the case of `COc1cc(S(=O)(=O)Nc2nc(-c3ccc(N=Cc4ccccc4O)cc3)cs2)ccc1Cl`, the TGI in the experiment on 786-0 renal is over 100 µM; in the experiment with COLO 205 colon it was 61.8 µM; in the experiment with DU-145 prostate, over 100 µM; in the experiment with HCC-2998 colon, over 100 µM; in the experiment on HCT-116 colon, over 100 µM; with HOP-62 NSCLC, over 100 µM. Also, the TGI with K-562 leukemia, with M14 melanoma, in the experiment on MCF7 breast, in the experiment with MDA-MB-231 breast, with MDA-MB-435 and with NCI-H460 lung was over 100 µM in each case. Besides, the TGI was over 100 µM in the experiment with OVCAR-5 ovarian; over 100 µM in the experiment with PC-3 prostate; over 100 µM with RXF 393 renal; 77.3 µM in the experiment on SN12C renal; over 100 µM in the experiment with SNB-19 CNS; over 100 µM in the experiment with U251 CNS.

Regarding `CO/C(N)=C(\C#N)N=Cc1ccsc1`, the TGI in the experiment on 786-0 renal, in the experiment on COLO 205 colon, with DU-145 prostate, in the experiment on HCC-2998 colon, with HCT-116 colon and with HOP-62 NSCLC was over 100 µM each time. In addition, the TGI with K-562 leukemia, in the experiment with M14 melanoma, in the experiment with MCF7 breast, with MDA-MB-231 breast, in the experiment with MDA-MB-435 and with NCI-H460 lung was over 100 µM in each case. In addition, the TGI with OVCAR-5 ovarian, with PC-3 prostate, in the experiment with RXF 393 renal, in the experiment with SN12C renal, with SNB-19 CNS and in the experiment with U251 CNS was over 100 µM throughout.
